Results published in patent publication US20090305954A1, “HISTIDINE-CONTAINING DIASTEREOMERIC PEPTIDES AND USES THEREOF” (Yeda Research and Development Co. Ltd., priority 2005, published 2009).
≈ marks a conversion by molar mass, not a printed value. Where two headings read alike, the source gives them in different places. Square brackets hold non-standard residues; d marks the D form. Ends that are not written are not given here. Peptide text beside a SMILES is read from it.

Assays:
[1] = test system: DU145 human prostate cancer cell line; test: XTT proliferation (cytotoxicity) assay, DU145; type: cell-based
Procedure: (§1) The CL1 human prostate carcinoma (PC) cell line is an androgen-independent (AI) subclone of LNCaP cell line, which was generated by culturing androgen-dependent (AD) LNCaP cells in charcoal-stripped, […], as described (Patel et al. 2000). 22RV1 human PC cells are AI sub-clones of the AD prostatic adenocarcinoma CWR22 xenograft (Sramkoski et al. 1999). CL1 and 22RV1 (ATCC, USA) were grown in RPMI-1640 supplemented with 10% FCS (Biological Industries, Beit Haemek, Israel). PC3 and DU145 are androgen-insensitive (AI) (non-responsive), invasive human prostate cancer cell lines. NIH-3T3 mouse fibroblast cell lines (ATCC, USA) were grown in DMEM supplemented with 10% BS. Murine Lewis lung carcinoma (LLC) cell lines were also grown in DMEM medium supplemented with 10% fetal calf serum and antibiotics under the same conditions as above.
(§2) The anticancer activity of the diastereomers 1, 5 and 11-16, 36-39, 42 and 44 was examined against human CL1 prostate cancer, murine LLC (Lewis lung carcinoma), DU 145 and PC3 cell lines. The cell selectivity of the diastereomeric peptides was also studied by examining their effect on NIH-3T3 normal mouse fibroblasts cell line.
(§3) A 96-well plate (Falcon) was used for the XTT proliferation assay. Cancer cells were grown for 24 hours (day 1) in RPMI-1640 medium ([…] cells/100 μl for LLC, CL1, 22RVI, DU 145 and PC3, respectively) supplemented with 10% fetal calf serum and antibiotics, at 37° C., in humidified atmosphere at 5% CO2 and 95% air, resulting in growth medium pH of 7.4. NIH-3T3 fibroblast cells (1×10^4 cells/100 μl) were grown in DMEM medium supplemented with 10% bovine calf serum and antibiotics under the same conditions as described above for the cancerous cells. Wells in the last two rows served as blanks (medium only, for measuring the background color of the medium) and 100% survival controls (cells and medium only without treatment), respectively.
(§4) In day 2, the peptides were dissolved in sterile PBS to a concentration of 200 μM (or 500 μM). The medium in the assay wells was replaced with 100 μl serum free medium. For the assays at pH 6, the medium was initially concentrated (×5 or ×10) and then diluted with double distilled water and addition of sodium carbonate. Before reaching the correct dilution, the medium was adjusted to pH 6 and then more water was added to reach the final dilution. The cells were grown in physiological pH, and the acidic pH was used only during the 24 hours incubation with the peptides. A sign for the correct acidity was a light yellow color of the medium. In line A of the plate, 160 μl of serum free medium was added, if the initial peptide concentration was 500 μM.
(§5) Peptide solutions, 100 μl (or 40 μl) were added to each assay well in line A, such that the final concentration of the peptide was […] and the volume 200 μl. The medium in the wells was mixed with multichannel pipette 5 times and 100 μl of it were transferred to the next row of wells (line B), to give a peptide concentration of 50 μM. The double dilution of the peptides continued downstream the plate in the same manner. The plates were then incubated for 24 h.
(§6) In day 3, XTT reaction solution was prepared by adding to 100 μl aliquots of activation solution (sodium 3′-[1-(phenyl-aminocarbonyl)-3,4-tetrazolium]-bis(4-methoxy-6-nitro) benzene sulfonic acid hydrate and N-methyl dibenzopyrazine methyl sulfate; mixed in a proportion of 50:1) (protected from light and kept in −20° C.), the substrate. 50 μl of XTT reaction solution were added to each well and the plates were incubated for 2 hours (37° C. and 5% CO2+95% air. In cases the incubation was not enough for the creation of the color, it was extended for up to 24 hours). The optical density was read at wavelength of 450 nm in an ELISA plate reader. Cell viability was determined relative to the control and final results were recorded. The results were confirmed using replications in at least three independent experiments. […]

[2] = test system: CL1 human prostate carcinoma cell line; test: XTT proliferation (cytotoxicity) assay, CL1; type: cell-based
Procedure: as §1, §2, §3, §4, §5, §6

[3] = test system: Murine Lewis lung carcinoma (LLC) cell line; test: XTT proliferation (cytotoxicity) assay, LLC; type: cell-based
Procedure: as §1, §2, §3, §4, §5, §6

[4] = test system: PC3 human prostate cancer cell line; test: XTT proliferation (cytotoxicity) assay, PC3; type: cell-based; conditions: PC3, pH 7.4, 24 h
Procedure: as §1, §2
A 96-well plate (Falcon) was used for the XTT proliferation assay. Cancer cells were grown for 24 hours (day 1) in RPMI-1640 medium (5×10^3, 7×10^3, 1×10^4 and 7×10^3 cells/100 μl for LLC, CL1, 22RVI, DU 145 and PC3, respectively) supplemented with 10% fetal calf serum and antibiotics, at 37° C., in humidified atmosphere at 5% CO2 and 95% air, resulting in growth medium pH of 7.4. […]
In day 3, XTT reaction solution was prepared by adding to 100 μl aliquots of activation solution (sodium 3′-[1-(phenyl-aminocarbonyl)-3,4-tetrazolium]-bis(4-methoxy-6-nitro) benzene sulfonic acid hydrate and N-methyl dibenzopyrazine methyl sulfate; mixed in a proportion of 50:1) (protected from light and kept in −20° C.), the substrate. […] The optical density was read at wavelength of 450 nm in an ELISA plate reader. Cell viability was determined relative to the control and final results were recorded. […]

[5] = Acute toxicity test in mice (intravenous); type: in vivo; conditions: for mortality: mice
Procedure: Acute toxicity of peptides 1, 13 and 16 was examined by intravenously injecting mice (n=3), each with one dose per day for 2 days of 0.5 ml solution containing peptides 1, 13 or 16 at 3, 9, 15, 20 and 30 mg/kg of body weight.
A week after injecting the peptides, blood samples were taken from the survived mice. […] Thus, the peptides 13 and 16 of the invention are not toxic even when administered at concentrations considerably higher than those necessary for their anticancer activity.

22RV1 human PC cells = test: XTT proliferation (cytotoxicity) assay, 22RV1; type: cell-based
Procedure: as §1, §3, §4, §5
In day 3, XTT reaction solution was prepared by adding to 100 μl aliquots of activation solution (sodium 3′-[1-(phenyl-aminocarbonyl)-3,4-tetrazolium]-bis(4-methoxy-6-nitro) benzene sulfonic acid hydrate and N-methyl dibenzopyrazine methyl sulfate; mixed in a proportion of 50:1) (protected from light and kept in −20° C.), the substrate. 50 μl of XTT reaction solution were added to each well and the plates were incubated for 2 hours (37° C. and 5% CO2+95% air. In cases the incubation was not enough for the creation of the color, it was extended for up to 24 hours). The optical density was read at wavelength of 450 nm in an ELISA plate reader. Cell viability was determined relative to the control and final results were recorded. The results were confirmed using replications in at least three independent experiments. The LC50 for each peptide was obtained from the curve of cell viability versus concentration of peptide and taken from the concentration at which cell viability was 50%. The data shown in Table 1 are for only one experiment, but representative of all replications.

[6] = XTT proliferation (cytotoxicity) assay, normal fibroblasts; type: cell-based, mouse; conditions: mouse, NIH-3T3 normal mouse fibroblasts, read-out: Lethal Concentration (LC50)
Procedure: as §1, §2, §3, §4, §5, §6

[7] = test system: NIH-3T3 normal mouse fibroblasts cell line; test: as above; type: cell-based; conditions: NIH3T3, pH 7.4, 24 h
Procedure: as §1, §2, §3, §4, §5, §6

[8] = Interaction with Matrigel matrix, analysed by RP-HPLC and mass spectroscopy; type: in vitro ADME; conditions: mixed with Matrigel matrix for one hour
[9] = test system: AI CL1 human PC cells xenograft; test: Inhibition of tumor growth in human prostate cancer xenografts, CL1; type: in vivo, nude male mice; conditions: CL1 xenograft, 1 mg/kg intratumorally, 9 doses
Procedure: (§7) (i) Inhibition of tumor growth in human prostate cancer xenografts. Subcutaneouse (s.c.) implantation of human PC cells in mice was done as previously described in Gavish et al. (Gavish et al. 2002). Briefly, 0.1 ml AI CL1 or 22RV1 human PC cells (5×10^6 cells) in Matrigel were inoculated s.c. into the dorsal side of five to six week-old nude male mice weighing 20-25 g (Harlen Co., Israel). Two weeks after cell implantation, when the tumors diameter reached ≧5 mm (denoted as day 1), the diastereomer 13 and its all L-amino acid analog peptide (at 1 mg/kg, 0.1 mM), or vehicle (PBS, pH=7.4) were injected intratumorally (dosing volume of 2.5 ml/kg) three times a week for a total of 9 doses. Tumor size was measured by a caliper and recorded twice a week during a period of 28 days. Mice were weighed and tumor weight (mg) was estimated by using the formula of length×width×depth×0.52 in mm^3, assuming the specific gravity to be 1. At the end of the treatment, the mice were killed, and the tumors were removed, photographed, and weighed. The animal experimentation was conducted according to the rules of the Institutional Animal Care and Use Committee.

[10] = test system: 22RV1 human PC cells xenograft; test: Inhibition of tumor growth in human prostate cancer xenografts, 22RV1; type: in vivo, nude male mice; conditions: 22RV1 xenograft, 1 mg/kg intratumorally, 9 doses
Procedure: as §7
Serum PSA levels. Four weeks after the first treatment, blood was withdrawn from the 22RV1-inoculated mice in order to determine the level of prostate specific antigen (PSA). The blood samples were taken directly to heparin containing tubes, centrifuged, and the supernatants were stored at −20° C. The CanAg PSA EIA kit (CanAg Diagnostics) was used to determine the total PSA in the mice plasma (Gavish et al., 2002). Tumor weight and PSA levels, represented as the mean±SE, were calculated from the raw data and then subjected to Student's t test. A value of P<0.05 was considered as statistically significant.

[11] = i.v., 3 mg/kg, one dose per day for 2 days
[12] = i.v., 9 mg/kg, one dose per day for 2 days
[13] = i.v., 15 mg/kg, one dose per day for 2 days
[14] = i.v., 20 mg/kg, one dose per day for 2 days

CC(C)C[C@H](NC(=O)[C@H](CC(C)C)NC(=O)[C@@H](CCCCN)NC(=O)[C@H](CC(C)C)NC(=O)[C@H](CC(C)C)NC(=O)[C@H](CCCCN)NC(=O)[C@@H](CCCCN)NC(=O)[C@@H](CC(C)C)NC(=O)[C@H](CC(C)C)NC(=O)[C@@H](CCCCN)NC(=O)[C@H](CCCCN)NC(=O)[C@H](CC(C)C)NC(=O)[C@@H](CC(C)C)NC(=O)[C@H](CCCCN)NC(=O)[C@@H](N)CC(C)C)C(N)=O [Peptide 1, reference compound] (H-LK[dL]LK[dK]L[dL][dK]KLL[dK]LL-NH2)
Lethal Concentration (LC50) ([1]; DU145, pH 6, 24 h): 4.7 µg/mL | Lethal Concentration (LC50) ([1]; DU145, pH 7.4, 24 h): 4.7 µg/mL | Lethal Concentration (LC50) ([2]; CL1, pH 6, 24 h): 9.3 µg/mL | Lethal Concentration (LC50) ([2]; CL1, pH 7.4, 24 h): 6.25 µg/mL | Lethal Concentration (LC50) ([3]; pH 6, 24 h): 12.5 µg/mL | Lethal Concentration (LC50) ([3]; pH 7.4, 24 h): 12.5 µg/mL | Lethal Concentration (LC50) [4]: 6.2 µg/mL | mortality ([5]; concentrations considerably higher than those necessary for anticancer activity): 100% | mortality [5, 11]: No mortality | mortality [5, 12]: No mortality | mortality [5, 13]: 100% | mortality [5, 14]: 100% | Lethal Concentration (LC50) (22RV1 human PC cells; 22RV1, pH 6, 24 h): 25 µg/mL | Lethal Concentration (LC50) (22RV1 human PC cells; 22RV1, pH 7.4, 24 h): 12.5 µg/mL | CC50 at 24 h ([6]; NIH3T3, pH 6, 24 h): 25 µg/mL (≈ 13.9 µM) | CC50 at 24 h ([6]; NIH3T3, pH 7.4, 24 h): 50 µg/mL (≈ 27.7 µM)

CC(C)C[C@H](NC(=O)[C@H](CC(C)C)NC(=O)[C@@H](Cc1c[nH]cn1)NC(=O)[C@H](CC(C)C)NC(=O)[C@H](CC(C)C)NC(=O)[C@H](Cc1c[nH]cn1)NC(=O)[C@@H](Cc1c[nH]cn1)NC(=O)[C@@H](CC(C)C)NC(=O)[C@H](CC(C)C)NC(=O)[C@@H](CCCCN)NC(=O)[C@H](Cc1c[nH]cn1)NC(=O)[C@H](CC(C)C)NC(=O)[C@@H](CC(C)C)NC(=O)[C@H](Cc1c[nH]cn1)NC(=O)[C@@H](N)CC(C)C)C(N)=O [Peptide 16] (H-LH[dL]LH[dK]L[dL][dH]HLL[dH]LL-NH2)
Lethal Concentration (LC50) ([2]; CL1, pH 7.4, 24 h): 12.5 µg/mL | active concentration lower than against NIH-3T3 ([2]; CL1 vs NIH-3T3 at the same pH): at least two-fold lower | Lethal Concentration (LC50) ([3]; pH 7.4, 24 h): 50 µg/mL | mortality [5, 11]: No mortality | mortality [5, 12]: No mortality | mortality [5, 13]: no mortality | mortality [5, 14]: no mortality | mortality ([5]; i.v., 30 mg/kg, one dose per day for 2 days): No mortality | blood differential and biochemistry tests ([5]; survived mice, a week after injection): in the range of normal values | Lethal Concentration (LC50) (22RV1 human PC cells; 22RV1, pH 6, 24 h): 12.5 µg/mL | CC50 at 24 h ([6]; NIH3T3, pH 6, 24 h): 25 µg/mL (≈ 13.5 µM) | Lethal Concentration (LC50) [7]: 100 µg/mL

LKLLHKLLKHLLKLL-NH2 [all L-amino acid analog peptide, reference compound]
activity preserved upon interaction with the Matrigel matrix [8]: fully inactivated | tumor weight [9]: inactive | tumor weight [10]: inactive
